Results published in patent US20250263400A1, “GCN2 MODULATOR COMPOUNDS” (Alesta Therapeutics BV, priority 2022, published 2025).
pIC50: −log10 of the molar value.

Each compound was assayed against GCN2 (Homo sapiens (Human), UniProt Q9P2K8) (assay: GCN2 enzyme assay).
Chain of GCN2 (Q9P2K8 whole entry, species assumed): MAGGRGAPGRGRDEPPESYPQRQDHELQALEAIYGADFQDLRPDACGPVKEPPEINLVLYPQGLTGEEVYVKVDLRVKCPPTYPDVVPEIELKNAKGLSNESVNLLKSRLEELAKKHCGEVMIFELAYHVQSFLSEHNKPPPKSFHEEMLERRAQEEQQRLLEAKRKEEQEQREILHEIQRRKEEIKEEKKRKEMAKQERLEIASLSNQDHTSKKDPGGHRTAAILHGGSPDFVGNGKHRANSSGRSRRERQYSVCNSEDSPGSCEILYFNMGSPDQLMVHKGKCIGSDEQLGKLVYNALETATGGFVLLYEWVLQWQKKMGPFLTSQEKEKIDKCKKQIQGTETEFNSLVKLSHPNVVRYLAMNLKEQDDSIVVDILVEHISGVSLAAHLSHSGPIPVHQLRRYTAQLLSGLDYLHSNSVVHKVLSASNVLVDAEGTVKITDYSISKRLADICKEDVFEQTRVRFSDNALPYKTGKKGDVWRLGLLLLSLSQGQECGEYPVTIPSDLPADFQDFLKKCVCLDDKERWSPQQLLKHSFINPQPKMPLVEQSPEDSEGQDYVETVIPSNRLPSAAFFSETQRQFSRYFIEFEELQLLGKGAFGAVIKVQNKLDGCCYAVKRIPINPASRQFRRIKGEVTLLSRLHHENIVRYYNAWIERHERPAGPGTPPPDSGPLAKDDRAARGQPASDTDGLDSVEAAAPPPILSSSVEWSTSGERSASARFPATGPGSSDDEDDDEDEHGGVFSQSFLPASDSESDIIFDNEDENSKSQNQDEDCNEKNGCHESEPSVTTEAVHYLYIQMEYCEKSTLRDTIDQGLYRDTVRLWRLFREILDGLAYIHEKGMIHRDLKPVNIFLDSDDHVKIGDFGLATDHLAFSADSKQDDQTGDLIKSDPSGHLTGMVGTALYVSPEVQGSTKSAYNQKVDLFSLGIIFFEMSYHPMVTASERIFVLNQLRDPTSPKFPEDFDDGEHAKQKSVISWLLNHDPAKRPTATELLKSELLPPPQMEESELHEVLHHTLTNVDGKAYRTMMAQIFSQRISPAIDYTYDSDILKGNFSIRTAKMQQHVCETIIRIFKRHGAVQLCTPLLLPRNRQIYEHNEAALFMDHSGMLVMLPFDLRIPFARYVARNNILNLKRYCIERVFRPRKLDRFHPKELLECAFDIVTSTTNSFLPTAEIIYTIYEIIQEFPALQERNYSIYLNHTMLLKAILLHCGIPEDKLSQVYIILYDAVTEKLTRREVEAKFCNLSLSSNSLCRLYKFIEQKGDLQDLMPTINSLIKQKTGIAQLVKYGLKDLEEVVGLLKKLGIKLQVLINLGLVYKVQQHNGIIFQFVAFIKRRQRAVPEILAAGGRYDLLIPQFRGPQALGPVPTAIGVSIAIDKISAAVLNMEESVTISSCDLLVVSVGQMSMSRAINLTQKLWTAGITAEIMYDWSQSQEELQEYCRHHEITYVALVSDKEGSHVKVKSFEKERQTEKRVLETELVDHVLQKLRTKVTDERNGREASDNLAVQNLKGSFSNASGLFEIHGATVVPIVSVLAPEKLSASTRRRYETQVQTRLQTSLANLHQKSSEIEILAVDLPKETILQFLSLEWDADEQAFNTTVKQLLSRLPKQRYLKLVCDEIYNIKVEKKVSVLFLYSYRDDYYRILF
Type: biochemical
Procedure: For GCN2 enzyme assays, testing compounds were prepared at proper concentrations in DMSO solution. IC50 values were calculated from a remaining activity using read conversion ratio.
COCCNC(=O)N1CC[C@@H](Nc2ncc3cc(-c4c(F)ccc(NS(=O)(=O)c5cc(Cl)cc(CO)c5Cl)c4F)ccc3n2)C1 [Compound 1, (R)-3-((6-(3-((2,5-dichloro-3-(hydroxymethyl)phe-nyl)sulfonamido)-2,6-difluorophenyl)quina-zolin-2-yl)amino)-N-(2-methoxyethyl)pyr-rolidine-1-carboxamide] was tested, and the pIC50 was 7.98. COCCNC[C@@H]1CC[C@@H](Nc2ncc3cc(-c4c(F)ccc(NS(=O)(=O)c5cc(Cl)cc(CO)c5Cl)c4F)ccc3n2)C1 [Compound 2, 2,5-dichloro-N-(2,4-difluoro-3-(2-(((1R,3R)-3-(((2-methoxyethyl)ami-no)methyl)cyclopent-yl)amino)quina-zolin-6-yl)phenyl)-3-(hydroxymethyl)ben-zenesulfonamide] showed a pIC50 of 8.58. For COCCNC(=O)[C@H]1C[C@H](Nc2ncc3cc(-c4c(F)ccc(NS(=O)(=O)c5cc(Cl)cc(CO)c5Cl)c4F)ccc3n2)CN1 [Compound 3, (2R,4S)-4-((6-(3-((2,5-dichloro-3-(hydroxymethyl)phe-nyl)sulfonamido)-2,6-difluorophenyl)quin-zolin-2-yl)amino)-N-(2-methoxyethyl)pyr-rolidine-2-carboxamide], the pIC50 was 8.27. CN(C)CCNC(=O)[C@H]1CC[C@H](Nc2ncc3cc(-c4c(F)ccc(NS(=O)(=O)c5cc(Cl)cc(CO)c5Cl)c4F)ccc3n2)CC1 [Compound 4, (1R,4R)-4-((6-(3-((2,5-dichloro-3-(hydroxymethyl)phe-nyl)sulfonamido)-2,6-difluorophenyl)quina-zolin-2-yl)amino)-N-(2-(dimethylamino)eth-yl)cyclohexane-1-carboxamide] was tested, and the pIC50 was 8.40. COCCNC(=O)N1CC[C@@H](Nc2ncc3cc(-c4c(F)ccc(NS(=O)(=O)c5cc(Cl)cnc5OC)c4F)ccc3n2)C1 [Compound 5, (R)-3-((6-(3-((5-chloro-2-methoxypyridine)-3-sulfonamido)-2,6-difluorophenyl)quina-zolin-2-yl)amino)-N-(2-methoxyethyl)pyr-rolidine-1-carboxamide] gave a pIC50 of 7.94. Compound Cc1ncc(Cl)cc1S(=O)(=O)Nc1ccc(F)c(-c2ccc3nc(N[C@H]4CC[C@H](N(C)C)CC4)ncc3c2)c1F [Compound 6, 5-chloro-N-(3-(2-(((1R,4R)-4-(dimethylamino)cy-clohexyl)amino)quinazolin-6-yl)-2,4-difluorophenyl)-2-methylpyridine-3-sulfonamide] has a pIC50 of 8.47. In the case of COCCNC[C@@H]1CCC(Nc2ncc3cc(-c4c(Cl)ccc(NS(=O)(=O)c5cc(Cl)cnc5OC)c4Cl)ccc3n2)C1 (stereo partly drawn) [Compound 7, 5-chloro-N-(2,4-dichloro-3-(2-(((1R,3R)-3-(((2-methoxyethyl)ami-no)methyl)cyclopent-yl)amino)quina-zolin-6-yl)phenyl)-2-methoxypyridine-3-sulfonamide], the pIC50 was 7.90. With NC(=O)[C@@H]1CC[C@@H](Nc2ncc3cc(-c4c(F)ccc(NS(=O)(=O)c5cc(Cl)cc(CO)c5Cl)c4F)ccc3n2)C1 [Compound 11, (1R,3R)-3-((6-(3-((2,5-dichloro-3-(hydroxymethyl)phe-nyl)sulfonamido)-2,6-difluorophenyl)quina-zolin-2-yl)amino)cyclopent-ane-1-carboxamide] the pIC50 was 8.67. Work on O=S1(=O)CCC(Nc2ncc3cc(-c4c(F)ccc(NS(=O)(=O)c5cc(Cl)cc(CO)c5Cl)c4F)ccc3n2)C1 (stereo not shown) [Compound 12, 2,5-dichloro-N-(3-(2-((1,1-dioxidotetrahydro-thiophen-3-yl)amino)quinazo-lin-6-yl)-2,4-difluorophenyl)-3-(hydroxymethyl)ben-zenesulfonamide] yielded a pIC50 of 8.12. In the case of COCCNC[C@@H]1CC[C@@H](Nc2ncc3cc(-c4c(F)ccc(NS(=O)(=O)c5cc(Cl)cnc5OC)c4F)ccc3n2)C1 [Compound 13, 5-chloro-N-(2,4-difluoro-3-(2-(((1R,3R)-3-(((2-methoxyethyl)ami-no)methyl)cyclopent-yl)amino)quina-zolin-6-yl)phenyl)-2-methoxypyridine-3-sulfonamide], the pIC50 was 8.40. COc1ncc(Cl)cc1S(=O)(=O)Nc1ccc(F)c(-c2ccc3nc(N[C@@H]4CC[C@@H](C(N)=O)C4)ncc3c2)c1F [Compound 14, (1R,3R)-3-((6-(3-((5-chloro-2-methoxypyridine)-3-sulfonamido)-2,6-difluorophenyl)quinaz-zolin-2-yl)amino)cyclopent-ane-1-carboxamide 2,2,2-trifluoroacetate] showed a pIC50 of 8.47. Work on COCCNC(=O)[C@H]1C[C@H](Nc2ncc3cc(-c4c(F)ccc(NS(=O)(=O)c5cc(Cl)cnc5OC)c4F)ccc3n2)CN1 [Compound 15, (2R,4S)-4-((6-(3-((5-chloro-2-methoxypyridine)-3-sulfonamido)-2,6-difluorophenyl)quina-zolin-2-yl)amino)-N-(2-methoxyethyl)pyr-rolidine-2-carboxamide] yielded a pIC50 of 8.38. COc1ncc(Cl)cc1S(=O)(=O)Nc1ccc(Cl)c(-c2ccc3nc(N[C@@H]4CC[C@@H](C(N)=O)C4)ncc3c2)c1Cl [Compound 16, (1R,3R)-3-((6-(2,6-dichloro-3-((5-chloro-2-methoxypyridine)-3-sulfonamido)phenyl)quinazolin-2-yl)amino)cyclopent-ane-1-carboxamide] was tested, and the pIC50 was 7.93. COCCNC(=O)[C@H]1C[C@H](Nc2ncc3cc(-c4c(Cl)ccc(NS(=O)(=O)c5cc(Cl)cnc5OC)c4Cl)ccc3n2)CN1 [Compound 17, (2R,4S)-4-((6-(2,6-dichloro-3-((5-chloro-2-methoxypyridine)-3-sulfonamido)phenyl)quinazolin-2-yl)amino)-N-(2-methoxyethyl)pyr-rolidine-2-carboxamide] gave a pIC50 of 8.04. For COCCNC(=O)N1CC[C@@H](Nc2ncc3cc(-c4c(Cl)ccc(NS(=O)(=O)c5cc(Cl)cnc5OC)c4Cl)ccc3n2)C1 [Compound 18], the pIC50 was 7.38. COCCNC(=O)[C@H]1CC[C@H](Nc2ncc3cc(-c4c(F)ccc(NS(=O)(=O)c5cc(Cl)cnc5OC)c4F)ccc3n2)CC1 [Compound 20, (1R,4R)-4-((6-(3-((5-chloro-2-methoxypyridine)-3-sulfonamido)-2,6-difluorophenyl)quina-zolin-2-yl)amino)-N-(2-methoxyethyl)cyclo-hexane-1-carboxamide] was tested, and the pIC50 was 7.99. For COCCNC(=O)[C@H]1CC[C@H](Nc2ncc3cc(-c4c(Cl)ccc(NS(=O)(=O)c5cc(Cl)cnc5OC)c4Cl)ccc3n2)CC1 [Compound 21, (1R,4R)-4-((6-(2,6-dichloro-3-((5-chloro-2-methoxypyridine)-3-sulfonamido)phenyl)quinazolin-2-yl)amino)-N-(2-methoxyethyl)cyclo-hexane-1-carboxamide], the pIC50 was 7.50. COc1ncc(Cl)cc1S(=O)(=O)Nc1ccc(F)c(-c2ccc3nc(NC4CCS(=O)(=O)C4)ncc3c2)c1F (stereo not shown) [Compound 23, 5-chloro-N-(3-(2-((1,1-dioxidotetrahydro-thiophen-3-yl)amino)quinazo-lin-6-yl)-2,4-difluorophenyl)-2-methoxypyridine-3-sulfonamide] gave a pIC50 of 8.18. With COc1ncc(Cl)cc1S(=O)(=O)Nc1ccc(Cl)c(-c2ccc3nc(NC4CCS(=O)(=O)C4)ncc3c2)c1Cl (stereo not shown) [Compound 27, 5-chloro-N-(2,4-dichloro-3-(2-((1,1-dioxidotetrahydro-thiophen-3-yl)amino)quinazo-lin-6-yl)phenyl)-2-methoxypyridine-3-sulfonamide] the pIC50 was 7.60.
